Measurements taken from patent US6613317B1, “Volatile attractants for diabrotica species” (priority 1988, dated 2003).
Marks after values point to notes of the source that are not given here.

Tests used:
NCR = assay: Limit of response rating of squash blossom volatiles on sticky traps (Example 5); assay type: in vivo, Diabrotica barberi; conditions: 24 hour; four replicate traps; 0.01 mg to 200 mg
Description: (§1) Over 40 individual volatile chemicals have been isolated from Cucurbita maxima blossoms and circa 25 of these have been unequivocally identified (Andersen, J. F., J. Agric. Food Chem., 35:60-62 (1987): Andersen, J. F. and Metcalf, R. L., J. Chem. Ecol., 12:687-699 (1986)). The major odor components were evaluated as potential attractants for adult Diabrotica species using cylindrical sticky traps baited with dental cotton wicks (Metcalf, R. L., and Lampman, R. L., Paper submitted to J. Econ. Entomol., (1988)) containing from 0.01 mg to 200 mg of volatile compound.

SCR = assay: as above; assay type: in vivo, Diabrotica undecimpunctata howardi; conditions: 24 hour; four replicate traps; 0.01 mg to 200 mg
Description: as §1

WCR = assay: as above; assay type: in vivo, Diabrotica virgifera virgifera; conditions: 24 hour; four replicate traps; 0.01 mg to 200 mg
Description: as §1

[1] = test system: southern corn rootworm (SCR) adults; assay: Sticky trap attraction in sweet corn plots (Example 1); assay type: in vivo, Diabrotica undecimpunctata howardi; conditions: August 4, second year, each compound 20 mg per trap
Description: (§2) The attraction of Diabrotica species to single-component and multicomponent lures was evaluated in corn fields. The field experiments on attraction of SCR and WCR adults were conducted in 0.405-ha (1-acre) plots of “Illini Xtra Sweet” corn grown on the University of Illinois South Farms at Urbana, Ill., over a two year period. Most of the tests were conducted in August to correspond with the peak silk-feeding and oviposition periods of corn rootworm adults in central Illinois. In both years, the sweet corn plot was adjacent to a 0.405-ha trap crop of C. maxima cultivar “Blue Hubbard”, to provide high densitites of SCR and WCR adults in the corn plots (Howe, et al., Environ. Entomol., 5:745-751 (1976), Lampman, et al., J. Chem. Ecol., 13:959-975 (1987).
(§3) Attraction of Diabrotica species to volatile compounds was measured by the average number of beetles cought during a 24-h period on 1.0-liter cylindrical paper cartons (15.2 cm high, 27.9 cm circumference) which were evenly coated with clear insect adhesive, TangleTrap™ (Tanglefood Co., Grand Rapids, Mich.) The candidate attractants were applied by capillary micropiettes to cotton dental wicks (13 mm long by 6 mm diameter) that were previously impregnated with mineral oil to prolong volatilization. The chemicals were purchased from Aldrich Chemical Co., (Milwaukee, Wis.) and assayed by gas chromatography as >97% pure. Indole, a solid at ambient temperatures (m.p. 52-54° C.), was dissolved in glass-distilled acetone before dosing the cotton wicks. For dosage-acticity tests, the various components were mixed in equal quantities by weight and diluted to the appropriate dosage with acetone. Treated and untreated (control) wicks were attached to the top of the paper cartons with TangleTrap™ and the inverted traps were placed on 1-m-high posts between the sweet corn rows. Four replicates of each treatment and a control were conducted in a randomized complete block desgin. The sticky traps within a block (ca. 50-m row of corn) were 5-10 m apart (depending on the number of treatments in a particular test) and the blocks were 3 m apart. The traps were baited and placed in the field between 1000 and 1300 hours and beetle counts were taken after 24 h. The significance of treatments was determined by analysis of variance and the individual means were separated by Duncan's multiple range test (Statistical Package for Social Sciences (SPSS) (Nie, et al., SPSS: statistical package for the social sciences, 2nd ed. McGraw-Hill, N.Y. (1975)). Student's t test was used for comparisons of two means (Sokal, et al., Biometry, Freeman, San Francisco (1969). Significance levels were set at P=0.05 at all statistical analyses.
(§4) The initial field test in August of the first year evaluated the response of SCR and WCR adults of a mixture of veratrole (V), indole (I), phenylacetaldehyde (P), trans-anethole (A), and eugenol (E) (=VIPAE mixture), as well as to the individual components. Each component in the VIPAE mixture was present at a dosage of 20 mg per trap and was compared with the individual components at 100 mg per trap. The response of SCR and WCR adults to a range of VIPAE doses, 1-300 mg, was conducted on the following day. Fifty SCR adults were removed from each 100-mg VIPAE trap, and returned to the laboratory for sex determination. Additional analyses in August evaluated the reduction in trap catches produced by the sequential removal of the individual components from the VIPAE lure. After the primary components of the initial lure were determined, a modified multicomponent lure consisting of veratrole, indole, and phenylacetaldehyde (=VIP mixture) was compared with its individual components to determine whether the attraction of SCR adults was the result of interactive or additive factors. The attraction and synergistic response of SCR adults of the VIP mixture was verified by tests conducted in August of the following year. […]

[2] = test system: western corn rootworm (WCR) adults; assay: as above; assay type: in vivo, Diabrotica virgifera virgifera; conditions: August 4, second year, each compound 20 mg per trap
Description: as §2, §3, §4

D. barberi = assay: Sticky trap attraction in prairie habitat, Trelease Woods (Example 2); assay type: in vivo, Diabrotica barberi; conditions: 100 mg per trap, n = 4
Description: (§5) The candidate lures in all experiments were purchased commercially and exceeded 98% purity. The test chemicals were applied by capillary micropipettes to cotton dental wicks which were attached to the tops of 1.0 liter cylindrical paper cartons covered with TangleTrap™ (Tanglefoot Co., Grand Rapids, Mich.). The sticky trap techniques used were as described in Example 1. Cinnamyl alcohol and para-methoxycinnamaldehyde, which are solids, were dissolved in glass-distilled acetone prior to dosing the cotton wicks. […]. Control traps had untreated cotton wicks. Four replicates of treated and untreated traps were randomly positioned 10 meters apart on top of 1 m high posts along the border of a eight foot wide strip cut through the middle of a 4.05 ha relict prairie at Trelease Woods (ca. two miles northeast of Urbana, Ill.). The field consisted primarily of Andropogon gerardii Vitman (big bluestem) and a variety of composites. The tests were conducted in mid-August of two years and were timed to coincide with the presence of D. cristata and D. barberi adults in the flower heads of Canada thistle (Carduus arvensis Robson). In the second year, several new attractants of D. v. virgifera and D. barberi were tested in Trelease Woods and along the edge of a 0.8 ha field of hybrid corn located at the Pomology South Farms, Urbana, Ill. Attraction of Diabrotica species to the various lures was measured by the mean number of beetles caught after 24-h. On one date in late August of the first year, D. cristata and D. barberi were removed from the traps and sexed in the laboratory. The significance of treatments in all tests was determined by an analysis of variance and the individual means were separated by Duncan's multiple range test (Statistical Package for Social Science, Nie, et al., SPSS: statistical package for the social sciences, 2nd ed. McGraw-Hill, New York (1975). Data were logarithmically transformed for statistical analysis and the means and standard deviations are presented for the untransformed data.

D. cristata = assay: as above; assay type: in vivo, Diabrotica cristata; conditions: 100 mg per trap, n = 4
Description: as §5

D. v. virgifera = assay: as above; assay type: in vivo, Diabrotica virgifera virgifera; conditions: 100 mg per trap, n = 4
Description: as §5

D. u. howardi = assay: as above; assay type: in vivo, Diabrotica undecimpunctata howardi; conditions: 100 mg per trap, n = 4
Description: as §5

Compound	Attractant Rating NCR (by limit of response) (NCR)	Attractant Rating SCR (by limit of response) (SCR)	Attractant Rating WCR (by limit of response) (WCR)	Mean number of D. barberi per sticky trap per day (±standard deviation) (D. barberi; August 20, first year)	Mean number of D. cristata per sticky trap per day (±standard deviation) (D. cristata; August 20, first year)	Mean number of D. v. virgifera per sticky trap per day (±standard deviation) (D. v. virgifera; August 20, first year)	Mean number of D. u. howardi per sticky trap per day (±standard deviation) (D. u. howardi; August 20, first year)	further results
CCC/C=C/CO [trans-2-hexenol]	0 (200)	+1 (30-100)	+1 (30-100)	–	–	–	–	–
COc1ccccc1O [Guaiacol, 2-methoxyphenol]	–	–	–	4.3 ± 2.1^b per sticky trap per day	6.0 ± 2.6^b per sticky trap per day	0 per sticky trap per day	0.8 ± 1.0^a per sticky trap per day	relative percent activity (SCR) as compared with the highest mean value for the test date [1]: 2%; Mean number of SCR per trap (±standard deviation) ([1]; n = 4): 0.8 ± 0.6 per trap; relative percent activity (WCR) as compared with the highest mean value for the test date [2]: 39%; Mean number of WCR per trap (±standard deviation) ([2]; n = 4): 20.0 ± 8.9 per trap
C=CC(C)(O)CCC=C(C)CCC=C(C)C (stereo not drawn) [nerolidol]	0 (200)	0 (200)	0 (200)	–	–	–	–	–
CCCCCCO [1-hexanol]	0 (200)	0 (200)	0 (200)	–	–	–	–	–
O=Cc1ccccc1 [benzaldehyde]	0 (200)	0 (200)	0 (200)	–	–	–	–	–
C=CCc1ccc2c(c1)OCO2 [Safrole]	–	–	–	0.25 ± 0.25^a per sticky trap per day	1.3 ± 1.9^a per sticky trap per day	0 per sticky trap per day	0.0^a per sticky trap per day	–
C=CCc1ccc(OC)c(OC)c1 [Methyl eugenol]	–	–	–	2.0 ± 1.4^ab per sticky trap per day	1.5 ± 1.7^a per sticky trap per day	0 per sticky trap per day	0.3 ± 0.5^a per sticky trap per day	Mean number of D. barberi per day (±standard deviation) (D. barberi; August 14, 1987): 1.0 ± 1.4^a per day; Mean number of D. barberi per sticky trap per day (±standard deviation) (D. barberi; August 18, first year): 1.8 ± 1.7^a per sticky trap per day; Mean number of D. cristata per day (±standard deviation) (D. cristata; August 14, 1987): 4.5 ± 1.3^ab per day; Mean number of D. cristata per sticky trap per day (±standard deviation) (D. cristata; August 18, first year): 1.8 ± 1.5^a per sticky trap per day; Mean number of D. v. virgifera per day (±standard deviation) (D. v. virgifera; August 14, 1987): 0.0^a per day; Mean number of D. v. virgifera per sticky trap per day (±standard deviation) (D. v. virgifera; August 18, first year): 0.0^a per sticky trap per day; Mean number of D. u. howardi per day (±standard deviation) (D. u. howardi; August 14, 1987): 0.3 ± 0.5^a per day; Mean number of D. u. howardi per sticky trap per day (±standard deviation) (D. u. howardi; August 18, first year): 0.0^a per sticky trap per day
